Read-outs that look alike come from different tables or passages of the source.
What was measured:
BRAF = BRAF (Homo sapiens (Human), UniProt P15056); assay: BRAF kinase activity assay (ADP-Glo); assay type: biochemical
Method: (§1) Compound preparation: solid samples of each substances in 1 dram vials were suspended in DMSO (Fisher Scientific) at a stock concentration of 20 mM. Stocks were kept at −20° C. and protected from light.
(§2) In vitro enzymatic reactions were used for evaluating compounds intrinsic activity against BRAF, CRAF and ARAF. […] Separate reactions were performed with the MEK1 substrate and ATP as a blank control.
(§3) For compound treatment, 5 μL/well of test substance solution are placed in a 384-well proxyplate (Perkin Elmer) and mixed with 2× concentrated kinase reactions. The dilution series is selected so that nine concentrations cover a range from 100 nM to 0.01 nM. […] The final concentration of DMSO in the assay is set at 0.05%.
(§4) BRAF and CRAF kinase reactions were carried out for a total of 2 hours at 30° C. and then stopped by ½ dilution in ADP-Glo Reagent (cat #V9102; Promega; part V912C). Reactions were then incubated for 1h at room temperature before addition of one volume of Kinase Detection Reagent (cat #V9102; Promega; part V917A). Plates were then equilibrated at room temperature for 30 minutes before detection of luminescence on a Synergy Neo2 plate reader (Biotek). The effect of each compound dilution on BRAF and CRAF kinase activity was expressed as % inhibition and calculated as follows.
(§5) IC50 values were obtained by plotting the kinase inhibition values and fitting the dose-activity curves using a log(agonist) versus response-variable slope (four parameters) function using either GraphPadPrism (V7.0) or Dotmatics Screening Ultra platform.

CRAF = CRAF (Homo sapiens, UniProt P04049); assay: CRAF kinase activity assay (ADP-Glo); assay type: biochemical
Method: as §1, §2, §3, §4, §5

[1] = tested on: pERK in HCT-116 cells (KRAS G13D); assay: Phospho-ERK inhibition (AlphaLISA SureFire Ultra p-ERK 1/2), HCT116; assay type: cell-based, human
How it was run: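 Cells plated in RPMI-1640 with 5% FBS, kept overnight at 37° C, then treated 1 h with ten-point dilutions (top usually 10 μM; 0.5% DMSO). Lysate p-ERK1/2 (Thr202/Tyr204) read by AlphaLISA SureFire Ultra. % inhibition set against DMSO after subtracting the trametinib background; IC50 from four-parameter fit.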

[2] = read-out: Kinase IC50 (nM) BRAF
[3] = read-out: Kinase IC50 (nM) CRAF
[4] = HCT116 cells, class symbol before the bracket
[5] = lowest % inhibition value of the IC50 curve, HCT116

BRAF, sequence (P15056 whole entry): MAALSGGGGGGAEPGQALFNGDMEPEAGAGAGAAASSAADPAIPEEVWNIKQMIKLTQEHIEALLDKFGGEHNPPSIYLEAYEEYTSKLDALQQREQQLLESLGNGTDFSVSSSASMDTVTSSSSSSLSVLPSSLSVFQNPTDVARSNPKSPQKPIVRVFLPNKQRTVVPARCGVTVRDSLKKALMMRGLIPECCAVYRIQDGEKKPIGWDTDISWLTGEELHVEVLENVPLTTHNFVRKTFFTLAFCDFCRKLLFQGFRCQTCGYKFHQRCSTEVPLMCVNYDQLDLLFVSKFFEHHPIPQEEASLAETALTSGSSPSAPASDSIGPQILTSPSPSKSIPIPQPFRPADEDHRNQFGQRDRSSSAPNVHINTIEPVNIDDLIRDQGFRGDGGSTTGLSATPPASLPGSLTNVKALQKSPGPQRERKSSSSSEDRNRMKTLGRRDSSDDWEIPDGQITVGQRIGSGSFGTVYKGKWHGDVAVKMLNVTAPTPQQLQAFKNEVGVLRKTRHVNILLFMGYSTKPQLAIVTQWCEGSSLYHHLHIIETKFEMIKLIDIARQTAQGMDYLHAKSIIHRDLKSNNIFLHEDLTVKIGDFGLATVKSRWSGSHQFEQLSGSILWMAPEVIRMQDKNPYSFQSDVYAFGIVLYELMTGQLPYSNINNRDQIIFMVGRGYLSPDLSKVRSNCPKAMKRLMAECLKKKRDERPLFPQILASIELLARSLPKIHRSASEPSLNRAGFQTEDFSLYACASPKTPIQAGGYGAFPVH
CRAF, sequence (P04049 whole entry, looked up): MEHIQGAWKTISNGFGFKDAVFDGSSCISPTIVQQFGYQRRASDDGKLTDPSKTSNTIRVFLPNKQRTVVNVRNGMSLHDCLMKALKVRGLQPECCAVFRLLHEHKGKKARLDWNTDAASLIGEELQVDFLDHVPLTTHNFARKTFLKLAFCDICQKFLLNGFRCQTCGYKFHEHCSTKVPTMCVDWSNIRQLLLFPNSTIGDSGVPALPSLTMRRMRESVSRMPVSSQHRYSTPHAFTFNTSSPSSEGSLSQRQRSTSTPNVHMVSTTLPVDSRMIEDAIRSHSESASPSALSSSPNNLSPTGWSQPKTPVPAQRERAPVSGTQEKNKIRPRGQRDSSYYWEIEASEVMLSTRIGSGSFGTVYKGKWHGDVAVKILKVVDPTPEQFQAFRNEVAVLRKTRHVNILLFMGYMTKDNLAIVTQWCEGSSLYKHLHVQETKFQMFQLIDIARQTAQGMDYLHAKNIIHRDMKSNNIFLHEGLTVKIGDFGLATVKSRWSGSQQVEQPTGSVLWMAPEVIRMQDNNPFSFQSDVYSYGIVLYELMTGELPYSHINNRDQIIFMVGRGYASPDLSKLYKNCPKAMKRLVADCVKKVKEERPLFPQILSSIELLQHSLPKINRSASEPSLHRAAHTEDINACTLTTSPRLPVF

IC50 (BRAF; [2])	IC50 (CRAF; [3])	IC50 [1, 4]	SMILES	HCT116 pERK Ymin % ([1]; HCT116 cells, Ymin in brackets)	further results
1 to 10 nM	< 10 nM	500 to 1000 nM	Cc1c(Cl)cccc1S(=O)(=O)Nc1ccc(F)c(Nc2ncnc3ccc(-n4nnc5c(O)cccc54)nc23)c1F [Example 117]	−12%	
1 to 10 nM	10 to 50 nM	1000 to 10000 nM	O=S(=O)(Nc1ccc(F)c(Nc2ncnc3ccc(-n4cc(-c5ncc[nH]5)c5ccccc54)nc23)c1F)c1cccc(Cl)c1Cl [Example 207]	−11%	
1 to 10 nM	> 50 nM	1000 to 10000 nM	O=S(=O)(Nc1ccc(F)c(Nc2ncnc3ccc(-n4nc(-c5ncc[nH]5)c5ccccc54)nc23)c1F)c1cccc(Cl)c1Cl [Example 212]	−13%	
1 to 10 nM	> 50 nM	1000 to 10000 nM	O=S(=O)(Nc1ccc(F)c(Nc2ncnc3ccc(-n4nc(-c5ncc[nH]5)c5ccccc54)nc23)c1F)c1ccccc1Cl [Example 213]	−8%	
1 to 10 nM	> 50 nM	1000 to 10000 nM	NCC(=O)c1cn(-c2ccc3ncnc(Nc4c(F)ccc(NS(=O)(=O)c5ccccc5Cl)c4F)c3n2)c2ccccc12 [Example 223]	−9%	
			COc1ccc(S(=O)(=O)Nc2ccc(F)c(Nc3ncnc4ccc(-n5cnc6ccccc65)nc34)c2Cl)cc1 [Example 239]		IC50 (BRAF; Table 5, read-out: Kinase IC50 (nM) BRAF): > 10 nM; IC50 (CRAF; Table 5, read-out: Kinase IC50 (nM) CRAF): > 50 nM; IC50 ([1]; HCT116 cells, Table 5): 1000 to 10000 nM; HCT116 pERK Ymin % ([1]; lowest value of the curve, HCT116, Table 5): 6.7%
1 to 10 nM	< 10 nM	< 500 nM	O=S(=O)(Nc1ccc(F)c(Nc2ncnc3ccc(-n4cnc5c(-c6cccnc6)cccc54)nc23)c1F)c1ccccc1Cl [Example 243]	−3.9%	
1 to 10 nM	< 10 nM		Cc1c(Cl)csc1S(=O)(=O)Nc1ccc(F)c(Nc2ncnc3ccc(-n4cnc5ccccc54)nc23)c1F [Example 315]		IC50 ([1]; HCT116 cells, 1 h treatment): < 500 nM; HCT116 pERK Ymin % [1, 5]: −12%
< 1 nM	< 10 nM		Cc1csc(S(=O)(=O)Nc2ccc(F)c(Nc3ncnc4ccc(-n5cnc6ccccc65)nc34)c2F)c1Cl [Example 316, N-(3-((6-(1H-benzo[d]imidazol-1-yl)pyrido[3,2-d]pyrimidin-4-yl)amino)-2,4-difluorophenyl)-3-chloro-4-methylthiophene-2-sulfonamide]		IC50 ([1]; Homo sapiens, HCT-116, HCT116 cells, 1 h treatment): 500 to 1000 nM; HCT116 pERK Ymin % [1, 5]: −5%
			Cc1c(F)cccc1S(=O)(=O)Nc1ccc(F)c(Nc2ncnc3ccc(-n4cnc(/C=C/C#N)c4)nc23)c1F [Example 343, (E)-N-(3-((6-(4-(2-cyanovinyl)-1H-imidazol-1-yl)pyrido[3,2-d]pyrimidin-4-yl)amino)-2,4-difluorophenyl)-3-fluoro-2-methylbenzenesulfonamide]		IC50 (BRAF; first kinase column (c6), * symbols, read-out: Kinase IC50): 1 to 10 nM; IC50 (CRAF; § symbols, read-out: Kinase IC50): 10 to 50 nM; IC50 ([1]; Homo sapiens, HCT-116, HCT116 cells, class symbol): < 500 nM

SMILES	IC50 (BRAF; [2])	IC50 (CRAF; [3])	IC50 [1, 4]	HCT116 pERK Ymin % ([1]; HCT116 cells, Ymin in brackets)	further results
O=C(Nc1cccc2c1ncn2-c1ccc2ncnc(Nc3c(F)ccc(NS(=O)(=O)c4ccccc4Cl)c3F)c2n1)N1CCOCC1 [Example 149]	1 to 10 nM	10 to 50 nM	500 to 1000 nM	8.5%	
O=S(=O)(Nc1ccc(F)c(Nc2ncnc3ccc(-n4nc(-c5nnc(O)o5)c5ccccc54)nc23)c1F)c1cccc(Cl)c1Cl [Example 208]	1 to 10 nM	< 10 nM	1000 to 10000 nM	−4%	
CN(C)c1nnc(-c2nn(-c3ccc4ncnc(Nc5c(F)ccc(NS(=O)(=O)c6cccc(Cl)c6Cl)c5F)c4n3)c3ccccc23)o1 [Example 209]	1 to 10 nM	10 to 50 nM	10000 to 30000 nM	−6%	
Cc1scc(S(=O)(=O)Nc2ccc(F)c(Nc3ncnc4ccc(-n5cnc6ccccc65)nc34)c2F)c1C [Example 320]	1 to 10 nM	> 50 nM			IC50 ([1]; HCT116 cells, 1 h treatment): 1000 to 10000 nM; HCT116 pERK Ymin % [1, 5]: −5%

Source: patent publication US12139488B2, “Pyrido[3,2-d]pyrimidine compounds uses thereof for treating a proliferative disease” (Universite de Montreal, priority 2021, dated 2024)
